According to PubChem BioAssay (NCI):
Values joined by “and” are separate entries in the source; they are usually repeats but may differ in a detail not shown here. Equal entries are not always repeated.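 Test compounds were applied to cells in 96-well plates for 48 hours at 5 doses. Here, GI50 denotes the concentration required for 50% inhibition of growth. TGI: total growth inhibition.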

Columns and labels:
Assay in all cases: inhibition of tumour cell growth, NCI panel, 48 h
[1] = test system: OVCAR-4 ovarian
[2] = test system: HOP-62 NSCLC
[3] = test system: OVCAR-5 ovarian
[4] = test system: SN12C renal
[5] = test system: M14 melanoma
[6] = test system: MCF7 breast
[7] = test system: U251 CNS
[8] = test system: MOLT-4 leukemia
[9] = test system: OVCAR-8 ovarian
[10] = test system: HT29 colon
[11] = test system: SR leukemia
[12] = test system: HCT-116 colon
[13] = test system: MDA-MB-435
[14] = test system: HCC-2998 colon
[15] = test system: SK-MEL-2 melanoma
[16] = test system: 786-0 renal
[17] = test system: T-47D breast
[18] = test system: K-562 leukemia
[19] = test system: TK-10 renal
[20] = test system: HL-60(TB) leukemia
[21] = test system: NCI-H226 lung
[22] = test system: UO-31 renal
[23] = test system: RPMI-8226 leukemia
[24] = test system: OVCAR-3 ovarian
[25] = test system: MALME-3M melanoma
[26] = test system: COLO 205 colon
[27] = test system: NCI-H460 lung
[28] = test system: NCI-H23 lung
[29] = test system: A498 renal
[30] = test system: A549 NSCLC
[31] = test system: MDA-MB-231 breast
[32] = test system: UACC-62 melanoma
[33] = test system: EKVX NSCLC
[34] = test system: SK-OV-3 ovarian
[35] = test system: SNB-75 CNS
[36] = test system: SK-MEL-5 melanoma
[37] = test system: IGROV1 ovarian
[38] = test system: CAKI-1 renal
[39] = test system: NCI/ADR-RES ovarian
[40] = test system: CCRF-CEM leukemia
[41] = test system: SW-620 colon
[42] = test system: DU-145 prostate
[43] = test system: HOP-92 NSCLC
[44] = test system: NCI-H522 lung
[45] = test system: ACHN renal
[46] = test system: LOX IMVI melanoma
[47] = test system: BT-549 breast
[48] = test system: RXF 393 renal
[49] = test system: SK-MEL-28 melanoma
[50] = test system: KM12 colon
[51] = test system: HCT-15 colon
[52] = test system: UACC-257 melanoma
[53] = test system: PC-3 prostate
[54] = test system: MDA-N
[55] = test system: SNB-19 CNS
[56] = test system: SF-295 CNS
[57] = test system: SF-268 CNS
[58] = test system: HS 578T breast
[59] = test system: SF-539 CNS

In the case of CC[C@]1(Cc2ccc(OC)c(OC)c2)C2CC(C(=O)OC)ON2O[C@H](OCc2ccccc2)[C@@H]1OC(C)=O (stereo not given in full), the TGI [1] is reported as > 100 µM, the TGI [2] is reported as > 100 µM and the TGI [3] is reported as > 100 µM. The TGI [4] was > 100 µM, the TGI [5] was > 100 µM and the TGI [6] was > 100 µM. For the same compound, the TGI [7] was > 100 µM, the TGI [8] was > 100 µM and the TGI [9] was > 100 µM. For the same compound, the TGI [10] was > 100 µM, the TGI [11] was > 100 µM and the TGI [12] was > 100 µM. The TGI [13] was > 100 µM, the TGI [14] was > 100 µM and the TGI [15] was > 100 µM. For the same compound, the TGI [16] was > 100 µM, the TGI [17] was > 100 µM and the TGI [18] was > 100 µM. For the same compound, the TGI [19] was > 100 µM, the TGI [20] was 66.1 µM and the TGI [21] was > 100 µM. The TGI [22] was > 100 µM, the TGI [23] was > 100 µM and the TGI [24] was > 100 µM. For the same compound, the TGI [25] was > 100 µM, the TGI [26] was > 100 µM and the TGI [27] was > 100 µM. For the same compound, the TGI [28] was > 100 µM, the TGI [29] was > 100 µM and the TGI [30] was > 100 µM. The TGI [31] was > 100 µM, the TGI [32] was > 100 µM and the TGI [33] was > 100 µM. For the same compound, the TGI [34] was > 100 µM, the TGI [35] was > 100 µM and the TGI [36] was > 100 µM. For the same compound, the TGI [37] was > 100 µM, the TGI [38] was > 100 µM and the TGI [39] was > 100 µM. The TGI [40] was > 100 µM, the TGI [41] was > 100 µM and the TGI [42] was > 100 µM. For the same compound, the TGI [43] was > 100 µM, the TGI [44] was > 100 µM and the TGI [45] was > 100 µM. For the same compound, the TGI [46] was > 100 µM, the TGI [47] was > 100 µM and the TGI [48] was > 100 µM. For the same compound, the TGI [49] was > 100 µM, the TGI [50] was > 100 µM and the TGI [51] was > 100 µM. For the same compound, the TGI [52] was > 100 µM, the TGI [53] was > 100 µM and the TGI [54] was > 100 µM. The TGI [55] was > 100 µM and the TGI [56] was > 100 µM.

CCOC(=O)c1c(-c2ccc(OC)c(O)c2)c(C#N)c(=S)n(C2OC(COC(C)=O)C(OC(C)=O)C(OC(C)=O)C2OC(C)=O)c1-c1ccccc1 (stereo not given) was tested, and the GI50 [1] was 47.2 µM and > 100 µM, the TGI [1] was > 100 µM and the GI50 [2] was 26.5 µM and > 100 µM. For the same compound, the TGI [2] was 72.2 µM and > 100 µM, the TGI [3] was > 100 µM and the GI50 [4] was 33.8 µM and > 100 µM. For the same compound, the TGI [4] was > 100 µM, the GI50 [5] was 18.9 µM and > 100 µM and the TGI [5] was 40.6 µM and > 100 µM. The GI50 [6] was 28.2 µM and > 100 µM, the TGI [6] was > 100 µM and the TGI [7] was > 100 µM. For the same compound, the GI50 [8] was 38.3 µM and > 100 µM, the TGI [8] was > 100 µM and the TGI [9] was > 100 µM. For the same compound, the GI50 [10] was 36.7 µM and > 100 µM, the TGI [10] was > 100 µM and the TGI [11] was > 100 µM. For the same compound, the GI50 [12] was 35.7 µM and > 100 µM, the TGI [12] was > 100 µM and the GI50 [13] was 31.7 µM and 67.9 µM. For the same compound, the TGI [13] was 91.6 µM and > 100 µM, the GI50 [14] was 31.8 µM and > 100 µM and the TGI [14] was > 100 µM. For the same compound, the GI50 [16] was 35.1 µM and > 100 µM, the TGI [16] was > 100 µM and the GI50 [18] was 43.1 µM and > 100 µM. The TGI [18] was > 100 µM, the GI50 [20] was 43.5 µM and > 100 µM and the TGI [20] was > 100 µM. For the same compound, the TGI [21] was > 100 µM, the GI50 [22] was 37 µM and > 100 µM and the TGI [22] was > 100 µM. For the same compound, the GI50 [23] was 36.5 µM and 6.1 µM, the TGI [23] was 81.5 µM and > 100 µM and the GI50 [24] was 20.9 µM and > 100 µM. The TGI [24] was 45.2 µM and > 100 µM, the TGI [25] was 57 µM and the GI50 [57] was 34 µM and > 100 µM. For the same compound, the TGI [57] was > 100 µM, the GI50 [26] was 27.9 µM and > 100 µM and the TGI [26] was > 100 µM. The TGI [27] was > 100 µM, the GI50 [28] was 22.2 µM and > 100 µM and the TGI [28] was 60.3 µM and > 100 µM. For the same compound, the GI50 [58] was 38.8 µM and > 100 µM, the TGI [58] was > 100 µM and the TGI [29] was > 100 µM. For the same compound, the TGI [30] was > 100 µM, the GI50 [32] was 17.1 µM and > 100 µM and the TGI [32] was 34.1 µM and > 100 µM. For the same compound, the GI50 [33] was 45.4 µM and > 100 µM, the TGI [33] was > 100 µM and the GI50 [36] was 15.5 µM and > 100 µM. For the same compound, the TGI [36] was 33.4 µM and > 100 µM, the GI50 [37] was 23.6 µM and > 100 µM and the TGI [37] was 47.7 µM and > 100 µM. The GI50 [38] was 34.5 µM and > 100 µM, the TGI [38] was > 100 µM and the GI50 [39] was 48.6 µM and > 100 µM. For the same compound, the TGI [39] was > 100 µM, the GI50 [40] was 47.2 µM and > 100 µM and the TGI [40] was > 100 µM. For the same compound, the TGI [41] was > 100 µM, the GI50 [42] was 27.3 µM and > 100 µM and the TGI [42] was 76.3 µM and > 100 µM. For the same compound, the TGI [43] was 87.9 µM and > 100 µM, the TGI [44] was 45.7 µM and the GI50 [45] was 36.6 µM and > 100 µM. The TGI [45] was > 100 µM, the GI50 [46] was 34.8 µM and > 100 µM and the TGI [46] was > 100 µM. For the same compound, the TGI [47] was 64 µM, the TGI [48] was > 100 µM and the GI50 [49] was 32.5 µM and > 100 µM. The TGI [49] was > 100 µM, the GI50 [50] was 27 µM and > 100 µM and the TGI [50] was 83.1 µM and > 100 µM. The GI50 [51] was 43.1 µM and > 100 µM, the TGI [51] was > 100 µM and the GI50 [52] was 23.4 µM and > 100 µM. The TGI [52] was 60.8 µM and > 100 µM, the GI50 [53] was 25 µM and > 100 µM and the TGI [53] was 66.5 µM and > 100 µM. For the same compound, the GI50 [54] was 16.8 µM and > 100 µM, the TGI [54] was 37.8 µM and > 100 µM and the TGI [55] was > 100 µM. The TGI [56] was > 100 µM.

In the case of CC(=O)OCCCCN1C(=O)CSc2ccccc21, the TGI [1] is reported as > 100 µM, the TGI [2] is reported as > 100 µM and the TGI [3] is reported as > 100 µM. The TGI [4] was > 100 µM, the TGI [6] was > 100 µM and the TGI [7] was > 100 µM. For the same compound, the TGI [8] was > 100 µM, the TGI [11] was > 100 µM and the TGI [12] was > 100 µM. The TGI [13] was > 100 µM, the TGI [15] was > 100 µM and the TGI [17] was > 100 µM. The TGI [19] was > 100 µM, the TGI [20] was > 100 µM and the TGI [22] was > 100 µM. For the same compound, the TGI [23] was > 100 µM, the TGI [24] was > 100 µM and the TGI [27] was > 100 µM. For the same compound, the TGI [58] was > 100 µM, the TGI [29] was > 100 µM and the TGI [30] was > 100 µM. The TGI [59] was > 100 µM, the TGI [32] was > 100 µM and the TGI [33] was > 100 µM. The TGI [34] was > 100 µM, the TGI [35] was > 100 µM and the TGI [36] was > 100 µM. The TGI [37] was > 100 µM, the TGI [38] was > 100 µM and the TGI [40] was > 100 µM. The TGI [41] was > 100 µM, the TGI [42] was > 100 µM and the TGI [43] was > 100 µM. The TGI [44] was > 100 µM, the TGI [45] was > 100 µM and the TGI [46] was > 100 µM. For the same compound, the TGI [47] was > 100 µM, the TGI [48] was > 100 µM and the TGI [49] was > 100 µM. For the same compound, the TGI [50] was > 100 µM, the TGI [51] was > 100 µM and the TGI [52] was > 100 µM. The TGI [53] was > 100 µM, the TGI [54] was > 100 µM and the TGI [55] was > 100 µM. For the same compound, the TGI [56] was > 100 µM.
